Source: patent publication US20080241177A1 (priority 2003, published 2008)

Key:
[1] = Delayed type hypersensitivity (DTH) testing; type: in vivo, human; details: for Induration area, DTH testing: 48 hours following intradermal injection of individual peptide, after four vaccinations; for Number of patients with a peptide-specific DTH response: six trial patients who underwent DTH testing
Experimental: Delayed type hypersensitivity (DTH) testing was carried out 1 month after the final vaccination. […] Induration of […]10 mm^2 at 48 hours after injection was considered positive.

[2] = tested on: PBMCs; assay: (3H)-thymidine proliferation assay; type: cell-based, human; details: for stimulation index: 10 μg/ml peptide
Experimental: FIG. 4. Cell-mediated response to peptide 5 in trial subject 016, measured over the course of the vaccination schedule. Patient PBMCs were stimulated with 10 μg/ml peptide 5, incubated in vitro for 6 days, pulsed with ^3H-thymidine for 18 hours and then proliferation was assessed by ^3H-thymidine incorporation.
Peripheral blood mononuclear cells (PBMCs) were plated at a concentration of 1×10^5 cells/well for thymidine proliferation and ELISpot assays and at 1×10^6 cells/well (24 well plates) for the CFSE proliferation assay. ELISpot plates were coated with mouse anti-human IFN-γ antibody (Diaclone, France) and cells for CFSE assay were stained with 5 μM CFSE-FITC (Molecular Probes, Eugene, Oreg.). All PBMCs were in RPMI supplemented with 2 mM L-glutamine, 10 mM HEPES, 100 U/mL penicillin/streptomycin and 10% human AB serum (Australian Red Cross Blood Service).
The recall antigens CMV lysate, (1/2000 dilution; BioWhittaker, Walkersville, Md.) and tetanus toxoid (2.5 Lfu/ml; CSL) were also tested. PBMCs were incubated at 37° C. and 5% CO2 atmosphere for 20 hours (ELISpot) or 6 days (proliferation assays).
In the thymidine proliferation assay, cells were pulsed with 0.5 μCi/well [methyl-^3H]-thymidine (Amersham, Buckinghamshire, UK) and harvested 18 hours later. [^3H]-thymidine incorporation was measured by liquid scintillation counting. A sample was considered to be positive when the stimulation index^22 for each well in the quadruplicate sample exceeded the mean of unstimulated cells by at least three standard deviations.

[3] = tested on: serum antibodies; assay: Immunization of sheep with the vaccine, anti-peptide ELISA; details: for Polyclonal sera with reactivity to peptide obtained from immunized sheep: 200 μg peptide mixture in CpG DNA adjuvant, prime and boost
[4] = tested on: serum antibodies; assay: ELISA for serum antibodies specific for the individual vaccine peptides, human sera; details: for Number of individuals with a humoral response to the vaccine peptides, Normal controls n = 30 / Percent of individuals with a humoral response to the vaccine peptides, Normal controls n = 30: n = 30, not vaccinated
[5] = tested on: PBMCs; assay: CFSE proliferation assay; type: cell-based, human; details: subject 016, visit 5
[6] = patient 016, visit 5 (1 month after vaccination 4)
[7] = non-trial cancer controls, n = 54, sera 1:25 dilution
[8] = trial subjects who completed four vaccinations, n = 6, detectable response at any time point considered positive

Substance	Induration area, DTH testing ([1]; patient 012)	Induration area, DTH testing ([1]; patient 014)	Induration area, DTH testing ([1]; patient 015)	Induration area, DTH testing ([1]; patient 016)	Induration area, DTH testing ([1]; patient 017)	Induration area, DTH testing ([1]; patient 018)	Number of patients with a peptide-specific DTH response [1]	stimulation index [2, 6]	Polyclonal sera with reactivity to peptide obtained from immunized sheep ([3]; two sheep)	Number of individuals with a humoral response to the vaccine peptides, Cancer controls n = 54 [4, 7]	Number of individuals with a humoral response to the vaccine peptides, Normal controls n = 30 [4]	Percent of individuals with a humoral response to the vaccine peptides, Normal controls n = 30 [4]	Number of individuals with a humoral response to the vaccine peptides, Trial subjects n = 6 [4, 8]	further results
H-LEWMGIINPSGGSANYAPKFKGRLTMS-OH [Peptide 1]	Neg (Neg indicates that induration (if any) was less than 10 mm^2)	Neg (Neg indicates that induration (if any) was less than 10 mm^2)	Neg (Neg indicates that induration (if any) was less than 10 mm^2)	104 mm^2	24 mm^2	Neg (Neg indicates that induration (if any) was less than 10 mm^2)	two	10.4	one animal did not respond	0	3	10%	0	Response to peptide using the polyclonal sheep sera or rabbit sera ([3]; polyclonal sheep sera (FIG. 2A) or rabbit sera (data not shown)): positive responses; Number of individuals with a humoral response to the vaccine peptides, Trial subjects n = 6 ([4]; trial subjects who completed four vaccinations, n = 6, detectable response at any time point considered positive, listed as peptide 1): No patient demonstrated a response
H-LEWVGFIRSKAYGAATAYAASMKGRVTI-OH [Peptide 5]	165 mm^2	16 mm^2	24 mm^2	269 mm^2	373 mm^2	94 mm^2	all six	22.2	obtained from both sheep	3	2	6.7%	2	stimulation index ([2]; patient 016, visit 3 (1 month after vaccination 2)): 8.88; stimulation index ([2]; patient 016, visit 4 (1 month after vaccination 3)): 64.6; First appearance of peptide-specific proliferative response ([2]; patient 016, maximal after three vaccinations): visit 3; Specific proliferative response, % of circulating CD3 and CD4 positive cells [5]: 5.5%; Serum antibody titres, first versus second immunized sheep ([3]; two sheep): equivalent; Percent of individuals with a humoral response to the vaccine peptides, Cancer controls n = 54 [4, 7]: 5.6%; Isotype of peptide-specific serum antibodies ([4]; subject 015): IgG3; Isotype of peptide-specific serum antibodies ([4]; subject 016): IgG3; Percent of individuals with a humoral response to the vaccine peptides, Trial subjects n = 6 [4, 8]: 33.3%; Number of individuals with a humoral response to the vaccine peptides, Trial subjects n = 6 ([4]; trial subjects who completed four vaccinations, n = 6, detectable response at any time point considered positive, listed as peptide 5): two
